Assay [1] concerns the target T1, bradykinin receptor of the B2 class (guinea-pig ileum) (Cavia porcellus, UniProt O70526).
T1 sequence (O70526 1-372): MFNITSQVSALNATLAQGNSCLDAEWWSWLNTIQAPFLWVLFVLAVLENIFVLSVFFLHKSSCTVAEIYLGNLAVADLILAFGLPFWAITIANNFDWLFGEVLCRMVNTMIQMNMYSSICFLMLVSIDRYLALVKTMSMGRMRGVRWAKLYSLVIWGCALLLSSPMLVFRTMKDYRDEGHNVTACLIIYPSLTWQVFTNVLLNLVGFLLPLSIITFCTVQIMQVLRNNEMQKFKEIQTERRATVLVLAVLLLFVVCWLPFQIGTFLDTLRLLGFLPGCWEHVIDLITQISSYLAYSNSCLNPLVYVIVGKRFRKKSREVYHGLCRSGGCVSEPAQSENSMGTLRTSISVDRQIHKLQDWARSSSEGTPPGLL

In assay [2] the target is T2, bradykinin receptor of the B2 class (rat uterus) (Rattus norvegicus, UniProt P25023).
T2 construct: concentration effect curves to bradykinin (BK) on rat uterus in vitro; from tissue; host or cells: rat uterus
T2 sequence (P25023 1-396): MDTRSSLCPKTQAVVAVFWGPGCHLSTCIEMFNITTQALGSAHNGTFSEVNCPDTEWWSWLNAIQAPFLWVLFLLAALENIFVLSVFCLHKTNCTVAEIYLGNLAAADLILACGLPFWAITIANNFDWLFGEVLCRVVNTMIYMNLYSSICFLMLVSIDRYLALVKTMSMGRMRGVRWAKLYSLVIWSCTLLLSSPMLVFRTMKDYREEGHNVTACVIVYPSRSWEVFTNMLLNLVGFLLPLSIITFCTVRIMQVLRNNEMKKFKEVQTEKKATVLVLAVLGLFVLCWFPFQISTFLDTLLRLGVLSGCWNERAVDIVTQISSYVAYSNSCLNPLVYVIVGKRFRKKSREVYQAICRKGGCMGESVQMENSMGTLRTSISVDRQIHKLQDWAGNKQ
Nature of the assay: Rat uterus (RU) in vitro, antagonism of bradykinin. Particulars: Table C, rat uterus. The procedure: Thus in vitro studies were performed on standard assay systems, namely, guinea-pig ileum (GPI), rat uterus (RU) and rabbit jugular vein (RJV). […] The PA2 can be defined as the negative logarithm of the molar concentration of the antagonist in the presence of which the potency of the agonist is reduced two-fold, i.e. twice the amount of agonist is required to produce a given response in the presence of, than in the absence of, the antagonist. A high potency of antagonism is indicated by a high PA2 value, i.e., a low concentration of antagonist is effective.
The percentage recovery (% Rec) was also determined for compounds with respect to each assay.
With respect to duration of activity, it is noted that after exposure to the highest concentration of antagonist, each tissue was washed extensively and then assessed for recovery from the antagonist effect.
Potency in the rat uterus assay was assessed as described above and PA2 values determined.

[3] abbreviates: read-out: pA2 DIMER (converted).

Where two headings read alike, the source gives them in different places. Peptide text beside a SMILES is read from it.

The text below walks through data of US5416191A, “Bradykinin antagonists” (Cortech, Inc., priority 1993, dated 1995).

On to `CC(C)C[C@H](NC(=O)[C@@H](Cc1ccccc1)NC(=O)[C@H](CO)NC(=O)[C@H](Cc1ccccc1)NC(=O)CNC(=O)[C@@H]1C[C@@H](O)CN1C(=O)[C@@H]1CCCN1C(=O)[C@H](CCCNC(=N)N)NC(=O)[C@H](N)CS)C(=O)N[C@@H](CCCNC(=N)N)C(=O)O` [CP-0149] (HELM PEPTIDE1{[dC].R.P.[Hyp].G.F.S.[dF].L.R}$$$$V2.0), for which the Kb is approximately 501 nM in assay [1] and 79.4 nM in assay [2] (P.A. = Partial Agonist, read-out: pA2 MONOMER (converted)). For the same molecule, the “% REC MONOMER” value in assay [2] is recorded as 75%.
Turning to `CC(C)C[C@H](NC(=O)[C@@H](Cc1ccccc1)NC(=O)[C@H](CO)NC(=O)[C@H](Cc1ccccc1)NC(=O)CNC(=O)[C@@H]1C[C@@H](O)CN1C(=O)[C@@H]1CCCN1C(=O)[C@H](CCCNC(=N)N)NC(=O)[C@@H](N)CSC1CC(=O)N(CCCCCCN2C(=O)CC(SC[C@H](N)C(=O)N[C@@H](CCCNC(=N)N)C(=O)N3CCC[C@H]3C(=O)N3C[C@H](O)C[C@H]3C(=O)NCC(=O)N[C@@H](Cc3ccccc3)C(=O)N[C@@H](CO)C(=O)N[C@H](Cc3ccccc3)C(=O)N[C@@H](CC(C)C)C(=O)N[C@@H](CCCNC(=N)N)C(=O)O)C2=O)C1=O)C(=O)N[C@@H](CCCNC(=N)N)C(=O)O` (stereo partly drawn) [CP-0152] (HELM PEPTIDE1{C.R.P.[Hyp].G.F.S.[dF].L.R}|PEPTIDE2{C.R.P.[Hyp].G.F.S.[dF].L.R}|CHEM1{[O=C1CC([*:1])C(=O)N1CCCCCCN1C(=O)CC([*:2])C1=O]}$PEPTIDE1,CHEM1,1:R3-1:R1|PEPTIDE2,CHEM1,1:R3-1:R2$$$V2.0), the values for the Kb in assay [1] and in assay [2] (setting [3]) were approximately 316 nM and 12.6 nM, respectively. In addition, the “% REC DIMER” value in assay [2] was determined as 50%.
Turning to `CC(C)C[C@H](NC(=O)[C@@H](Cc1ccccc1)NC(=O)[C@H](CO)NC(=O)[C@H](Cc1ccccc1)NC(=O)CNC(=O)[C@@H]1C[C@@H](O)CN1C(=O)[C@@H]1CCCN1C(=O)[C@H](CSC1CC(=O)N(CCCCCCN2C(=O)CC(SC[C@H](NC(=O)[C@H](N)CCCNC(=N)N)C(=O)N3CCC[C@H]3C(=O)N3C[C@H](O)C[C@H]3C(=O)NCC(=O)N[C@@H](Cc3ccccc3)C(=O)N[C@@H](CO)C(=O)N[C@H](Cc3ccccc3)C(=O)N[C@@H](CC(C)C)C(=O)N[C@@H](CCCNC(=N)N)C(=O)O)C2=O)C1=O)NC(=O)[C@H](N)CCCNC(=N)N)C(=O)N[C@@H](CCCNC(=N)N)C(=O)O` (stereo partly drawn) [CP-0153] (HELM PEPTIDE1{[dR].C.P.[Hyp].G.F.S.[dF].L.R}|PEPTIDE2{[dR].C.P.[Hyp].G.F.S.[dF].L.R}|CHEM1{[O=C1CC([*:1])C(=O)N1CCCCCCN1C(=O)CC([*:2])C1=O]}$PEPTIDE1,CHEM1,2:R3-1:R1|PEPTIDE2,CHEM1,2:R3-1:R2$$$V2.0), the Kb is approximately 20 nM in assay [1] and 20 nM in assay [2] (setting [3]). In assay [2], the “% REC DIMER” value came to 100%.
With `CC(C)C[C@H](NC(=O)[C@@H](Cc1ccccc1)NC(=O)[C@H](CO)NC(=O)[C@H](Cc1ccccc1)NC(=O)CNC(=O)[C@@H]1C[C@@H](O)CN1C(=O)[C@H](CSC1CC(=O)N(CCCCCCN2C(=O)CC(SC[C@H](NC(=O)[C@H](CCCNC(=N)N)NC(=O)[C@H](N)CCCNC(=N)N)C(=O)N3C[C@H](O)C[C@H]3C(=O)NCC(=O)N[C@@H](Cc3ccccc3)C(=O)N[C@@H](CO)C(=O)N[C@H](Cc3ccccc3)C(=O)N[C@@H](CC(C)C)C(=O)N[C@@H](CCCNC(=N)N)C(=O)O)C2=O)C1=O)NC(=O)[C@H](CCCNC(=N)N)NC(=O)[C@H](N)CCCNC(=N)N)C(=O)N[C@@H](CCCNC(=N)N)C(=O)O` (stereo partly drawn) [CP-0154] (HELM PEPTIDE1{[dR].R.C.[Hyp].G.F.S.[dF].L.R}|PEPTIDE2{[dR].R.C.[Hyp].G.F.S.[dF].L.R}|CHEM1{[O=C1CC([*:1])C(=O)N1CCCCCCN1C(=O)CC([*:2])C1=O]}$PEPTIDE1,CHEM1,3:R3-1:R1|PEPTIDE2,CHEM1,3:R3-1:R2$$$V2.0), the values for the Kb in assay [1] and in assay [2] (setting [3]) were approximately 25.1 nM and 63.1 nM, respectively. In assay [2], the “% REC DIMER” value was 90%.
